Earlier results as cited in patent publication US20210252031A1, “USE OF LACTULOSE IN THE TREATMENT OF AUTISM” (Curemark, LLC, priority 2006, published 2021).

solubility in water: very soluble in water
SMILES: OC[C@H]1O[C@@H](O[C@@H]2[C@@H](CO)OC(O)(CO)[C@H]2O)[C@H](O)[C@@H](O)[C@H]1O (stereo partly drawn) [Lactulose, 4-O-beta-D-galactopyranosyl-D-fructofuranose]
